Data taken from patent US6716828B1, “Compounds, methods and pharmaceutical compositions for treating cellular damage, such as neural or cardiovascular tissue damage” (Guilford Pharmaceuticals, Inc., priority 1999, dated 2004).

System: rabbits
Assay: not given
Settings: 1 mg/kg; cited from earlier work

Compound	reduction in infarct size
Oc1cccc2c(O)nccc12 [1,5-dihydroxyisoquinoline]	38-48%

Same assay, conditions: single injection 10 mg/kg, one minute before occlusion or one minute before reperfusion; cited from earlier work

Compound	reduction in infarct size in the heart
NC(=O)c1cccc(N)c1 [3-amino-benzamide]	32-42%

Biological target: T1, purified recombinant human PARP (Homo sapiens, UniProt P09874)
T1 construct: purchased Trevigan (Gaithersburg, Md.)
Assay: PARP enzyme assay (IC50), [3H]NAD incorporation
Type: biochemical
Settings: approximate IC50 values
Method: A convenient method to determine IC50 of a PARP inhibitor compound is PARP assay using purified recombinant human PARP from Trevigan (Gaithersburg, Md.), as follows: The PARP enzyme assay is set up on ice in a volume of 100 microliters consisting of 100 mM Tris-HCl (pH 8.0). 1 mM MgCl2, 28 mM KCl, 28 mM NaCl, 0.1 mg/ml of DNase I activated herring sperm DNA (Sigma, Mo.), 3.0 micromolar [3H]nicotinamide adenine dinucleotide (470 mci/mmole), 7 micrograms/ml PARP enzyme, and various concentrations of the compounds to be tested. The reaction is initiated by incubating the mixture at 25° C. After 15 minutes of incubation, the reaction is terminated by adding 500 microliters of ice code 20% (w/v) trichloracetic acid. The precipitate formed is transferred onto a glass fiber filter (Packard Unifilter-GF/B) and washed three items with ethanol. After the filter is dried, the radioactivity is determined by scintillation counting.
Using the PARP assay described above, approximate IC50 values were obtained for the following compounds: […]

T1 sequence (P09874 whole entry): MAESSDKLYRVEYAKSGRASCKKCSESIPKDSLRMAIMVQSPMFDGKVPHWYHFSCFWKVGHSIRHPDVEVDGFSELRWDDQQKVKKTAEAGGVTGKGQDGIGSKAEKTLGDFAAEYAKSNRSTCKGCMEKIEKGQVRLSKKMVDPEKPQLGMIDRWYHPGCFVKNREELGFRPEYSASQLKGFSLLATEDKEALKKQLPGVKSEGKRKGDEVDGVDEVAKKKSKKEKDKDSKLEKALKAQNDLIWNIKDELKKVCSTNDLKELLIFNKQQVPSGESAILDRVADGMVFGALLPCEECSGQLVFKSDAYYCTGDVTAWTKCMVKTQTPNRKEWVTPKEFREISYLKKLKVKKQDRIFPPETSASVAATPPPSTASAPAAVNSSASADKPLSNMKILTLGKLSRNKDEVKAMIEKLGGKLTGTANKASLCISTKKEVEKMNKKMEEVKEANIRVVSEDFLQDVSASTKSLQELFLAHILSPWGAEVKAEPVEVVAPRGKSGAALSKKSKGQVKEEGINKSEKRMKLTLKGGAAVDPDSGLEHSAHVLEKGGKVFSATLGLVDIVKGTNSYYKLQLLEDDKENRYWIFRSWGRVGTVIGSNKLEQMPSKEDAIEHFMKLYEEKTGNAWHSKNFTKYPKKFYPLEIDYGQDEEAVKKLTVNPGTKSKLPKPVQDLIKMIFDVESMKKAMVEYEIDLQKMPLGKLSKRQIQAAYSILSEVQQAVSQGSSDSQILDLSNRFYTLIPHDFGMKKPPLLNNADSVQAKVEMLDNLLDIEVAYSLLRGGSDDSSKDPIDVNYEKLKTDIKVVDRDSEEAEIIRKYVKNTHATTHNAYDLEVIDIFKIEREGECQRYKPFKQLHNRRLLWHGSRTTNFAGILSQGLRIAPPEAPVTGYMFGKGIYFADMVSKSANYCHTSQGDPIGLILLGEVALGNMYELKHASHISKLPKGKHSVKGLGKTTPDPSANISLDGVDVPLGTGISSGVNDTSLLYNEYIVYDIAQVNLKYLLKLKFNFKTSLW

Compound	IC50 [nM]
O=C(O)CCC(=O)Nc1ccc2c(c1)-c1n[nH]c(=O)c3cccc(c13)O2	21
CCOP(=O)(Nc1ccc2c(c1)-c1n[nH]c(=O)c3cccc(c13)O2)OCC	199
O=c1[nH]nc2c3c(cccc13)Oc1c-2ccc2ccccc12	40000
COC(=O)C1CCCCN1S(=O)(=O)c1ccc2c(c1)C1CNC(=O)c3cccc(c31)O2 (stereo not drawn)	595
O=c1[nH]nc2c3c(cccc13)Oc1ccc(S(=O)(=O)NCCc3ccncc3)cc1-2	89
CCCCN(C)Cc1ccc2c(c1)-c1n[nH]c(=O)c3cccc(c13)O2	120
CC(=O)Nc1ccc2c(c1)-c1n[nH]c(=O)c3cccc-2c13	69
O=c1[nH]nc2c3c(cccc13)Oc1ccc(S(=O)(=O)NCCN3CCCCC3)cc1-2	192
CN(C)CCN(C)Cc1ccc2c(c1)-c1n[nH]c(=O)c3cccc(c13)O2	85
O=c1[nH]nc2c3c(cccc13)Oc1cc3ccccc3cc1-2	139
O=c1[nH]nc2c3c(cccc13)Oc1ccc(CN3CCN(c4ccccn4)CC3)cc1-2	77
NCCSCc1ccc2c(c1)-c1n[nH]c(=O)c3cccc(c13)O2	28
O=C(O)c1cccc(S(=O)(=O)Nc2ccc3c(c2)-c2n[nH]c(=O)c4cccc-3c24)c1	52
O=C1NN=C2C3C=CC=CC3[S+]([O-])C3=CC=CC1C32 (stereo not drawn)	340
CN(C)Cc1ccc2c(c1)-c1n[nH]c(=O)c3cccc(c13)O2	17
O=c1[nH]nc2c3c(cccc13)Oc1ccc(CN3CCCCC3)cc1-2	72
NNC(=O)c1ccc(OCc2ccc3c(c2)-c2n[nH]c(=O)c4cccc(c24)O3)cc1	35
O=c1[nH]nc2c3c(cccc13)Oc1ccc(S(=O)(=O)NCCCN3CCOCC3)cc1-2	185
O=c1[nH]nc2c3c(cccc13)Oc1ccc(CN3CCOCC3)cc1-2	75
Cc1cc2c(c(-n3nc4ccccc4n3)c1)Oc1cccc3c(=O)[nH]nc-2c13	25000
O=C1NCC2c3cc(S(=O)(=O)NN4CCOCC4)ccc3Oc3cccc1c32 (stereo not drawn)	144
O=C(O)CCC(=O)Nc1ccc2c(c1)-c1n[nH]c(=O)c3cccc-2c13	29
Cc1cc2c(c(S(=O)(=O)O)c1)Oc1cccc3c(=O)[nH]nc-2c13	2030
CC(=O)OC(C(=O)O)C(OC(C)=O)C(=O)Nc1ccc2c(c1)-c1n[nH]c(=O)c3cccc(c13)O2 (stereo not drawn)	18
CN(C)c1cccc(OCc2ccc3c(c2)-c2n[nH]c(=O)c4cccc(c24)O3)c1	128

Compound	IC50 [nM]
NNC(=O)c1cc(OCc2ccc3c(c2)-c2n[nH]c(=O)c4cccc(c24)O3)cc(C(=O)NN)c1	40
O=c1[nH]nc2c3c(cccc13)Oc1ccc(-c3nc4ccccc4nc3-c3ccccc3)cc1-2	100
O=c1[nH]nc2c3c(cccc13)Oc1ccc(COc3cccnc3)cc1-2	54
O=C1NCC2c3cc(S(=O)(=O)O)ccc3Oc3cccc1c32 (stereo not drawn)	161
O=c1[nH]nc2c3c(cccc13)Oc1ccc(CN3CCN(Cc4ccccc4)CC3)cc1-2	44
O=C(O)[C@@H]1CCCN1S(=O)(=O)c1ccc2c(c1)-c1n[nH]c(=O)c3cccc(c13)O2	58
CC(=O)OC(C(=O)O)C(OC(C)=O)C(=O)Nc1ccc2c(c1)-c1n[nH]c(=O)c3cccc-2c13 (stereo not drawn)	59
CCN(CC)CCNS(=O)(=O)c1ccc2c(c1)-c1n[nH]c(=O)c3cccc-2c13	390
O=C(O)C(O)C(O)C(=O)Nc1ccc2c(c1)-c1n[nH]c(=O)c3cccc-2c13 (stereo not drawn)	65
O=c1[nH]nc2c3c(cccc13)Oc1ccc(S(=O)(=O)NCCN3CCOCC3)cc1-2	81
CS(=O)(=O)Nc1ccc2c(c1)-c1n[nH]c(=O)c3cccc(c13)O2	198
NCNCc1ccc2c(c1)-c1n[nH]c(=O)c3cccc(c13)O2	45
O=c1[nH]nc2c3c(cccc13)Oc1ccc(S(=O)(=O)O)cc1-2	52
O=c1[nH]nc2c3c(cccc13)Oc1ccc(CN3CCN(c4ccccc4)CC3)cc1-2	62
O=C1NCC2c3cc(S(=O)(=O)NCCN4CCCCC4)ccc3Oc3cccc1c32 (stereo not drawn)	361
CN1CCN(S(=O)(=O)c2ccc3c(c2)C2CNC(=O)c4cccc(c42)O3)CC1 (stereo not drawn)	233
O=C(O)C(O)C(O)C(=O)Nc1ccc2c(c1)-c1n[nH]c(=O)c3cccc(c13)O2 (stereo not drawn)	23
O=c1[nH]nc2c3c(cccc13)-c1ccc(S(=O)(=O)NCCN3CCOCC3)cc1-2	340
O=c1[nH]nc2c3c(cccc13)Oc1ccc(S(=O)(=O)NCCN(CCO)CCO)cc1-2	158
O=c1[nH]nc2c3c(cccc13)Oc1ccc(NS(=O)(=O)O)cc1-2	25
CN1CCN(S(=O)(=O)c2ccc3c(c2)-c2n[nH]c(=O)c4cccc(c24)O3)CC1	208
O=c1[nH]nc2c3c(cccc13)Oc1ccc(CSc3ccncc3)cc1-2	17
N#CCc1ccc2c(c1)-c1n[nH]c(=O)c3cccc(c13)O2	25
CC(=O)Nc1ccc2c(c1)-c1n[nH]c(=O)c3cccc(c13)O2	36
O=c1[nH]nc2c3c(cccc13)Oc1ccc(S(=O)(=O)NC3CN4CCC3CC4)cc1-2 (stereo not drawn)	37

System: human fibroblast cells lines (either W138 or BJ cells)
Assay: Extending or increasing proliferative capacity and lifespan of cells
Type: cell-based
Settings: 10 μM
Method: At the time of subdivision, the media is aspirated, and the cells rinsed with phosphate buffer saline (PBS) and then trypsinzied. The cells are counted with a Coulter counter and plated at a density of 10^5 cells per cm^2 in 6-well tissue culture plates in DMEM/199 medium supplemented with 10% bovine calf serum and varying amounts (0.10 μM, and 1 mM; from a 100× stock solution in DMEM/M199 medium) of a PARP inhibitor. This process is repeated every 7 days until the cells appear to stop dividing. The untreated (control) cells reach senescence and stop dividing after about 40 days a culture. […] The cells treated with 1 mM 3-AB will still divide after 60 days in culture.

Compound	effect on lifespan and proliferative capacity of the cells
NC(=O)c1cccc(N)c1 [3-amino-benzamide]	little or no effect

Same assay, conditions: 100 μM

Compound	effect on lifespan and proliferative capacity of the cells
NC(=O)c1cccc(N)c1 [3-amino-benzamide]	lengthen the lifespan of the cells

Same assay, conditions: 1 mM

Compound	effect on lifespan and proliferative capacity of the cells
NC(=O)c1cccc(N)c1 [3-amino-benzamide]	dramatically increases the lifespan and proliferative capacity of the cells

Same assay, conditions: 1 mM; untreated cells stop dividing after about 40 days

Compound	time in culture at which cells still divide [days]
NC(=O)c1cccc(N)c1 [3-amino-benzamide]	> 60

System: not given
Assay: not given
Settings: not given

Compound	melting point [°C]
COP(=O)(O)Cc1ccc2c(c1)-c1n[nH]c(=O)c3cccc(c13)O2	196 to 201
